In patent publication US5804410A, “Nucleic acid sequence encoding trypsin-like enzyme and process for producing the enzyme” (Teijin Limited, priority 1994, dated 1998):
Entries after “also recorded” stand apart in the source; their conditions may differ. Like-named read-outs stand apart in the source and are kept apart here. *1 amine or outer side, *2 acyl side, *3 side chain or, on linkers, in order; H or OH if unused. Where a SMILES comes first, the peptide text is derived from it. The star is where a group is joined. AMC = Cc1cc(=O)oc2cc(N*)ccc12; Suc = O=C(CCC(=O)[*:2])[*:1]; Boc = CC(C)(C)OC(=O)*; CO = O=C([*:1])[*:2]

Experiments:
trypsin-like enzyme [1] = target: T1, trypsin-like enzyme (Homo sapiens, UniProt O60235); assay: Substrate specificity, synthetic MCA substrates (assay method of trypsin activity); format: biochemical; details: pH 8.6, 0.1M Tris-HCl; activity on Boc-Phe-Ser-Arg-MCA taken to be 100%
T1 construct: from tissue; host or cells: cough phlegm (sputum) of patients with chronic disease of the respiratory tract
T1 sequence (O60235 187-418): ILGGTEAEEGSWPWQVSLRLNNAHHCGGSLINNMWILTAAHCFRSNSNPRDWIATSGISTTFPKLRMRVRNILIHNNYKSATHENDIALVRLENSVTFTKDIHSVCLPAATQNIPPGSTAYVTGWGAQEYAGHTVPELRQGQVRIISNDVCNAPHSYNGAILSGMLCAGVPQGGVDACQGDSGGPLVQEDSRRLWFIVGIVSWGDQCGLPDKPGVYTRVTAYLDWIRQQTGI

[2] = target: T2, human neutrophile elastase (Homo sapiens, UniProt P08246); assay: Substrate specificity, synthetic MCA substrates; format: biochemical
T2 sequence (P08246 30-267): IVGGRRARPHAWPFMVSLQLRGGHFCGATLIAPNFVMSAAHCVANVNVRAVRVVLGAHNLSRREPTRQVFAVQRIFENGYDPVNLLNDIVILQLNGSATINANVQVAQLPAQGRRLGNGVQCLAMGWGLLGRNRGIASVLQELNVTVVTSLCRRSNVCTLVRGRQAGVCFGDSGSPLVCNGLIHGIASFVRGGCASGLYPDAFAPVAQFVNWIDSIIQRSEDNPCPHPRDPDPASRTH

[3] = system: rat mast cell-derived tryptase; assay: Substrate specificity, synthetic MCA substrates; format: biochemical; details: activity on Suc-Phe-Ser-Arg-MCA taken to be 100%
trypsin-like enzyme [4] = target: T1, trypsin-like enzyme; assay: Digestion of natural substrates detected by SDS-polyacrylamide gel electrophoresis; format: biochemical
[5] = system: rat mast cell-derived tryptase; assay: Effect of protease inhibitors on enzymatic activity; format: biochemical
trypsin-like enzyme [6] = target: T1, trypsin-like enzyme; assay: as above; format: biochemical; details: for inhibition at 10 µM: read-out: Inhibition (%) Trypsin-like protease (human)
[7] = target: T3, human-derived neutrophile elastase (Homo sapiens, UniProt P08246); assay: as above; format: biochemical; details: for inhibition at 10 µM: read-out: Inhibition (%) Neutrophile elastase (human)
T3 sequence (P08246 30-267): T2 sequence (P08246 30-267)

[8] = target: rat mast cell-derived tryptase (rat) (UniProt P27435)
[9] = target: trypsin-like enzyme isolated from cough phlegm of a patient suffering from a chronic respiratory apparatus disease (human)
[10] = target: Suc-Gly-Pro-Leu-Gly-Pro-MCA
[11] = pH 8.6, activity on Suc-Ala-Pro-Ala-MCA taken to be 100%
[12] = Example 5: inhibitors 10 μM, PMSF 1 mM

Chain of trypsin-like enzyme isolated from cough phlegm of a patient suffering from a chronic respiratory apparatus disease (O60235 187-418 limits assumed): as the sequence (O60235 187-418) above

In the case of Cc1cc(=O)oc2cc(NC(=O)[C@H](CCCCN)NC(=O)[C@H](CC(C)C)NC(=O)[C@@H](NC(=O)OC(C)(C)C)C(C)C)ccc12 [Boc-Val-Leu-Lys-MCA] (Boc-Val-Leu-Lys-{AMC}), the “Substrate digestion ratio (%) Trypsin-like enzyme pH 8.6” value (trypsin-like enzyme [1]) was 3.9%, the “Substrate digestion ratio (%) Neutrophile elastase pH 8.6” value [2, 11] was 0.1% and the “Substrate digestion ratio (%) Rat mast cell Tryptase pH 8.6” value [3] was 6.1%.

“α-1-antitrypsin: a blood protease inhibitor; also used as natural substrate” was tested, and the “Digestion of natural substrate by trypsin-like enzyme” value (“Digestion of natural substrate” below) (trypsin-like enzyme [4]) was “does not digest”, the “Digestion of natural substrate” value (trypsin-like enzyme [4]; listed as al-antitrypsin) was “not digested” and the “Inhibition (%) Tryptase (derived from rat mast cell)” value (“Inhibition (%) Tryptase” below) ([5]; 10 µM) was 66.3%. For the same molecule, the “Inhibition of trypsin-like enzyme (in words)” value (shortened to “Inhibition … (in words)”) (trypsin-like enzyme [6]; [12]) was “inhibited” and the “Inhibition (%) Trypsin-like protease (human)” value (trypsin-like enzyme [6]; inhibitor 10 μM) was 23.5%.

With CC(C)[C@H](NC(=O)[C@H](CCCNC(=N)N)NC(=O)N[C@@H](Cc1ccccc1)C(=O)O)C(=O)N[C@H](C=O)CCCNC(=N)N [Antipain, antipain] ({Phe-CO}-Arg-Val-Arg-aldehyde) the inhibition at 10 µM [7] was 11.1%, the “Inhibition (%) Tryptase” value ([5]; 10 µM) was 98.2% and the “Inhibition … (in words)” value (trypsin-like enzyme [6]) was “inhibited”. The inhibition at 10 µM (trypsin-like enzyme [6]) was 78.1%.

With fibrinogen the “Digestion of natural substrate” value (trypsin-like enzyme [4]) was “specifically digested; also recorded: digests”.

Molecule “rat mast cell-derived tryptase (from UniProt P27435) (enzyme)” has a Substrate digestion ratio (%) (Boc-Gln-Gly-Arg-MCA) of 4.6%, a Substrate digestion ratio (%) (Boc-Val-Leu-Lys-MCA) of 6.1% and a Substrate digestion ratio (%) (Boc-Val-Pro-Arg-MCA) of 50.6%. For the same molecule, the Substrate digestion ratio (%) (Boc-Ile-Gln-Gly-Arg-MCA) was 149%, the Substrate digestion ratio (%) (Suc-Ala-Ala-Pro-Phe-MCA) was 2% and the Substrate digestion ratio (%) (Boc-Phe-Ser-Arg-MCA) was 100%.

With substance P the “Digestion of natural substrate” value (trypsin-like enzyme [4]) was “not digested; also recorded: does not digest”.

Molecule α1-antitrypsin has an Inhibition (%) [8] of 66.3% and an Inhibition (%) [9] of 23.5%.

Cc1cc(=O)oc2cc(NC(=O)[C@H](Cc3ccccc3)NC(=O)[C@@H]3CCCN3C(=O)[C@H](C)NC(=O)[C@H](C)NC(=O)CCC(=O)O)ccc12 [Suc-Ala-Ala-Pro-Phe-MCA] (Suc-AAPF-{AMC}) was tested, and the “Substrate digestion ratio (%) Trypsin-like enzyme pH 8.6” value (trypsin-like enzyme [1]) was 0%, the “Substrate digestion ratio (%) Neutrophile elastase pH 8.6” value [2] was 0.1% and the “Substrate digestion ratio (%) Rat mast cell Tryptase pH 8.6” value [3] was 2.0%.

CC(C)C[C@H](NC(=O)[C@@H](O)[C@H](N)Cc1ccccc1)C(=O)O [Bestatin, bestatin] was tested, and the inhibition at 10 µM ([7]; inhibitor 10 μM) was 15.2%, the “Inhibition (%) Tryptase” value ([5]; inhibitor 10 μM) was 23.4% and the “Inhibition … (in words)” value (trypsin-like enzyme [6]; [12]) was “not inhibited”. For the same molecule, the inhibition at 10 µM (trypsin-like enzyme [6]; inhibitor 10 μM) was 0%.

With Cc1cc(=O)oc2cc(NC(=O)[C@H](CCCNC(=N)N)NC(=O)[C@H](C)NC(=O)[C@H](CCC(N)=O)NC(=O)OC(C)(C)C)ccc12 [Boc-Gln-Ala-Arg-MCA] (Boc-Gln-Ala-Arg-{AMC}) the “Substrate digestion ratio (%) Trypsin-like enzyme pH 8.6” value (trypsin-like enzyme [1]) was 52.2% and the “Substrate digestion ratio (%) Neutrophile elastase pH 8.6” value [2, 11] was 0.3%.

For Cc1cc(=O)oc2cc(NC(=O)[C@@H](N)CC(C)C)ccc12 [Leu-MCA], the “Substrate digestion ratio (%) Trypsin-like enzyme pH 8.6” value (trypsin-like enzyme [1]) was 0% and the “Substrate digestion ratio (%) Neutrophile elastase pH 8.6” value [2, 11] was 0.2%.

For Cc1cc(=O)oc2cc(NC(=O)[C@H](CCCNC(=N)N)NC(=O)[C@@H]3CCCN3C(=O)[C@@H](NC(=O)OC(C)(C)C)C(C)C)ccc12 [Boc-Val-Pro-Arg-MCA] (Boc-Val-Pro-Arg-{AMC}), the “Substrate digestion ratio (%) Trypsin-like enzyme pH 8.6” value (trypsin-like enzyme [1]) was 74.6%, the “Substrate digestion ratio (%) Neutrophile elastase pH 8.6” value [2, 11] was 0.2% and the “Substrate digestion ratio (%) Rat mast cell Tryptase pH 8.6” value [3] was 50.6%.

With Cc1cc(=O)oc2cc(NC(=O)[C@H](CCCNC(=N)N)NC(=O)[C@H](CO)NC(=O)[C@H](Cc3ccccc3)NC(=O)OC(C)(C)C)ccc12 [Boc-Phe-Ser-Arg-MCA] (Boc-Phe-Ser-Arg-{AMC}) the “Substrate digestion ratio (%) Trypsin-like enzyme pH 8.6” value (trypsin-like enzyme [1]) was 100%, the “Substrate digestion ratio (%) Neutrophile elastase pH 8.6” value [2, 11] was 0.4% and the “Substrate digestion ratio (%) Rat mast cell Tryptase pH 8.6” value [3] was 100%.

CC[C@H](C)[C@H](NC(=O)OC(C)(C)C)C(=O)N[C@@H](CCC(N)=O)C(=O)NCC(=O)N[C@@H](CCCNC(=N)N)C(=O)Nc1ccc2c(C)cc(=O)oc2c1 [Boc-Ile-Gln-Gly-Arg-MCA] (Boc-IQGR-{AMC}) was tested, and the “Substrate digestion ratio (%) Trypsin-like enzyme pH 8.6” value (trypsin-like enzyme [1]) was 13.1%, the “Substrate digestion ratio (%) Neutrophile elastase pH 8.6” value [2, 11] was 0.3% and the “Substrate digestion ratio (%) Rat mast cell Tryptase pH 8.6” value [3] was 149.0%.

For Cc1cc(=O)oc2cc(NC(=O)[C@@H]3CCCN3C(=O)CNC(=O)[C@H](CC(C)C)NC(=O)[C@@H]3CCCN3C(=O)CNC(=O)CCC(=O)O)ccc12 [Suc-Gly-Pro-Leu-Gly-Pro-MCA] (Suc-GPLGP-{AMC}), the “Substrate digestion ratio (%) Trypsin-like enzyme pH 8.6” value (trypsin-like enzyme [1]) was 0% and the “Substrate digestion ratio (%) Neutrophile elastase pH 8.6” value [2, 11] was 0%.

With Cc1cc(=O)oc2cc(NC(=O)[C@H](C)NC(=O)[C@@H]3CCCN3C(=O)[C@H](C)NC(=O)CCC(=O)O)ccc12 [Suc-Ala-Pro-Ala-MCA] (Suc-Ala-Pro-Ala-{AMC}) the “Substrate digestion ratio (%) Trypsin-like enzyme pH 8.6” value (trypsin-like enzyme [1]) was 0% and the “Substrate digestion ratio (%) Neutrophile elastase pH 8.6” value [2, 11] was 100%.

In the case of CC(=O)N[C@@H](CC(C)C)C(=O)N[C@@H](CC(C)C)C(=O)N[C@H](C=O)CCCNC(=N)N [Leupeptin, leupeptin], the inhibition at 10 µM [7] was 0%, the “Inhibition (%) Tryptase” value ([5]; 10 µM) was 100% and the “Inhibition … (in words)” value (trypsin-like enzyme [6]) was “inhibited”. For the same molecule, the inhibition at 10 µM (trypsin-like enzyme [6]) was 82.5%.

With “human neutrophile elastase (from UniProt P08246) (enzyme)” the Substrate digestion ratio (%) (Suc-Ala-Pro-Ala-MCA) was 100%, the Substrate digestion ratio (%) (Boc-Gln-Gly-Arg-MCA) was 0.2% and the Substrate digestion ratio (%) (Boc-Val-Leu-Lys-MCA) was 0.1%. It also gave a Substrate digestion ratio (%) (Boc-Gln-Ala-Arg-MCA) of 0.3%, a Substrate digestion ratio (%) (Boc-Val-Pro-Arg-MCA) of 0.2% and a Substrate digestion ratio (%) (Boc-Ile-Gln-Gly-Arg-MCA) of 0.3%. It also gave a Substrate digestion ratio (%) [10] of 0%, a Substrate digestion ratio (%) (Suc-Ala-Ala-Pro-Phe-MCA) of 0.1% and a Substrate digestion ratio (%) (Boc-Phe-Ser-Arg-MCA) of 0.4%.

For O=S(=O)(F)Cc1ccccc1 [PMSF, phenylmethylsulfonyl fluoride], the “Inhibition (%) Neutrophile elastase (human)” value ([7]; 1000 µM) was 93.6%, the “Inhibition … (in words)” value (trypsin-like enzyme [6]) was “inhibited” and the “Inhibition (%) Trypsin-like protease (human)” value (trypsin-like enzyme [6]; 1000 µM) was 100%.

With elastinol the “Inhibition (%) Neutrophile elastase (human)” value ([7]; inhibitor 10 μM) was 0%, the “Inhibition (%) Tryptase” value ([5]; inhibitor 10 μM) was 53.0% and the “Inhibition … (in words)” value (trypsin-like enzyme [6]; [12]) was “not inhibited”. For the same molecule, the “Inhibition (%) Trypsin-like protease (human)” value (trypsin-like enzyme [6]; inhibitor 10 μM) was 0%.

“trypsin-like enzyme isolated from cough phlegm of a patient suffering from a chronic respiratory apparatus disease” showed a Substrate digestion ratio (%) (Suc-Ala-Pro-Ala-MCA) of 0%, a Substrate digestion ratio (%) (Boc-Gln-Gly-Arg-MCA) of 13.8% and a Substrate digestion ratio (%) (Boc-Val-Leu-Lys-MCA) of 3.9%. For the same molecule, the Substrate digestion ratio (%) (Boc-Gln-Ala-Arg-MCA) was 52.2%, the Substrate digestion ratio (%) (Boc-Val-Pro-Arg-MCA) was 74.6% and the Substrate digestion ratio (%) (Boc-Ile-Gln-Gly-Arg-MCA) was 13.1%. The Substrate digestion ratio (%) [10] was 0%, the Substrate digestion ratio (%) (Suc-Ala-Ala-Pro-Phe-MCA) was 0% and the Substrate digestion ratio (%) (Boc-Phe-Ser-Arg-MCA) was 100%.

For vasoactive intestinal peptide [VIP], the “Digestion of natural substrate” value (trypsin-like enzyme [4]) was “specifically digested; also recorded: digests”.

CC(C)C[C@@H](N)[C@H](O)C(=O)N[C@H](C(=O)N[C@H](C(=O)N[C@@H](CC(=O)O)C(=O)O)C(C)C)C(C)C [Amastatin, amastatin] was tested, and the inhibition at 10 µM ([7]; inhibitor 10 μM) was 67.6%, the “Inhibition (%) Tryptase” value ([5]; inhibitor 10 μM) was 6.6% and the “Inhibition … (in words)” value (trypsin-like enzyme [6]; [12]) was “not inhibited”. It also gave an inhibition at 10 µM (trypsin-like enzyme [6]; inhibitor 10 μM) of 0%.

In the case of Cc1cc(=O)oc2cc(NC(=O)[C@H](CCCNC(=N)N)NC(=O)CNC(=O)[C@H](CCC(N)=O)NC(=O)OC(C)(C)C)ccc12 [Boc-Gln-Gly-Arg-MCA] (Boc-Gln-Gly-Arg-{AMC}), the “Substrate digestion ratio (%) Trypsin-like enzyme pH 8.6” value (trypsin-like enzyme [1]) was 13.8%, the “Substrate digestion ratio (%) Neutrophile elastase pH 8.6” value [2, 11] was 0.2% and the “Substrate digestion ratio (%) Rat mast cell Tryptase pH 8.6” value [3] was 4.6%.
